Assays:
[1] = tested on: splenic B cells of Ighel Tg mice (BCRs specific to HEL); assay: CFSE B cell proliferation and viability, splenic cells of Ighel Tg mice; format: cell-based; details: 10 µg/mL, 4 days
[2] = tested on: murine splenic B cells (CD19+); assay: Nur77 expression in B cells by flow cytometry (BCR engagement); format: cell-based, mice; details: micelle-Ag 10 µg/mL each component, LPS 0.5 µg/mL, anti-IgM F(ab′)2 10 µg/mL
Source text: B cell proliferation was detected using in vitro labeling of cells with CFSE and analysis by flow cytometry. Distinct generations of proliferating cells can be monitored by dilutions of CFSE stain on the cells as viewed on the flow cytometry plots. For the flow cytometry procedure, the cells were transferred into polystyrene FACS tubes and labelled with Zombie Aqua dye for tracking viable cells post-stimulation using manufacturer’s instructions. […] For intracellular staining of Nur77 antibody, following surface staining, cells were washed with PBS and then fixed with 4% p-formaldehyde. After washing the cells again with PBS, 0.1% Triton X-100 was used for permeabilization, and following that, Nur77 Ab at a 1:50 dilution was used to stain the cells. After the staining, cells were washed in FACS buffer to remove excess dye and samples were fixed prior to analysis. The flow cytometry data was collected on FACSCanto II (BD Bioscience, NJ) and analyzed using FlowJo (FlowJo LLC, Ashland, CA).

## hen egg white lysozyme [HEL]
[1]
  B cell proliferation (CFSE^lo peaks): small peak with some proliferation

## lipopolysaccharide [LPS]
[2]
  Nur77 induction: did not trigger Nur77 induction

— patent US20230257703A1, “NANOSCALE POLYMERIC MICELLAR SCAFFOLDS FOR RAPID AND EFFICIENT ANTIBODY PRODUCTION” (Iowa State University Research Foundation, Inc., priority 2020, published 2023)
